“Also recorded” adds a separate entry of the source.
Assays:
HR-1 hairless mice [1] = experiment: Histology (hematoxylin-eosin) and MOMA-2 immunohistochemistry of UVB-irradiated ears; format: in vivo; details: for MOMA-2 positive cells / macrophage infiltration in the dermis / edema formation in the dermis vs control-treated: day 4 after UVB irradiation
Description: (§1) Immunofluorescence analysis was performed on 6-μm cryostat sections of human neonatal foreskins as described, using polyclonal antibodies against LYVE-1 (kindly provided by Dr. David Jackson, Oxford, UK), sGCα1, sGCβ1, eNOS (as described above), or a mouse monoclonal antibody against human podoplanin (20) (clone D2-40, Signet Laboratories, Dedham, Mass.), and corresponding secondary antibodies labeled with AlexaFluor488 or AlexaFluor594 (Molecular Probes, Eugene, Oreg.). Immunohistochemical analysis was performed on 5 μm AMEX-fixed sections as described(30), using antibodies against the macrophage monocyte marker MOMA-2 (BMA Biomedicals AG, Switzerland) or LYVE-1. Routine hematoxylin-eosin staining was also performed. Sections were examined by a Nikon E-600 microscope (Nikon, Melville, N.Y.) and images were captured with a SPOT digital camera (Diagnostic Instruments, Sterling Heights, Mich.). Computer-assisted morphometric analyses of representative LYVE-1-stained sections were performed as described(3).
(§2) A total of 15 female albino HR-1 hairless mice (Hoshino Laboratory Animal Co., Ltd, Japan) at 8 weeks of age were exposed to a single dose of 200 mJ/cm^2 of UVB irradiation, using ten Toshiba FL-20 SE fluorescent lamps that deliver energy in the UVB (280-340 nm) wave length range with a maximum energy at a wavelength of 305 nm as described(31). Beginning one day before UVB irradiation, the right ears were daily treated topically with 1 mM of SNAP, 10 μM of NS-2028, or 1 mM of SNAP together with 100 μl of 10 μM of NS-2028 in a 50% ethanol solution (n=5 per group) until day 3 after UVB irradiation (5 times total). The left ears were treated with vehicle only. The thickness of the ears was measured every day until day 4 after the UVB irradiation. At 4 days after the UVB irradiation, mouse ears were fixed in cold acetone (AMeX procedure) (30)and were processed for histological analysis of paraffin sections. All animal studies were approved by the Shiseido Life Science Research Center Committee on Research Animal Care.

LEC [2] = experiment: LEC proliferation assay (5-methylumbelliferylheptanoate fluorescence); format: cell-based, human
Description: (§3) Human dermal BVEC and LEC were isolated from neonatal human foreskins by immunomagnetic purification as previously described(18, 19). The lineage-specific differentiation was confirmed by real-time RT-PCR for the lymphatic vascular markers Prox1, LYVE-1 and podoplanin, and for the blood vascukar endothelial markers VEGF receptor-1 and VEGF-C, as well as by immunostains for CD31, Prox1 and podoplanin as described(18, 19). Cells were cultured in endothelial basal medium (Cambrex, Verviers, Belgium) supplemented with 20% fetal bovine serum (Gibco, Paisley, UK), antibiotics, 2 mM L-glutamine, 10 μg/ml hydrocortisone and 2.5×10^−2 mg/ml N-6,2-O-dibutyryl-adenosine 3′,5′-cyclic monophosphate (all from Fluka, Buchs, Switzerland) for up to eleven passages.
LEC (1.5×10^3) were seeded into fibronectin-coated 96-well plates as described(19). For proliferation studies, quinduplicate wells were treated or not with different concentrations (0.1 to 10 μM) of the NO donor SNAP (S-Nitroso-N-acetyl-D,L-penicillamine) (Cayman Chemical, Ann Arbor, Mich.) in EBM containing 2% fetal bovine serum. In additional assays, LEC were incubated with 10 μM of SNAP, in the presence or absence of the specific guanylate cyclase inhibitor NS-2028 (100 nM, Cayman Chemical, Ann Arbor, Mich.). After 72 hours, cells were incubated with 5-methylumbelliferylheptanoate as described. The fluorescence intensity, proportional to the number of viable cells, was measured using a Spectra Max GEMINI EM (Bucher Biotech AG, Basel, Switzerland). Haptotatic cell migration was studied as described(19), using 24-well FluoroBlok inserts of 8 μm pore size (Falcon, Franklin Lakes, N.J.). […] After 3 hours incubation at 37° C., cells on the underside of the inserts were stained with Calcein-AM (Molecular Probes), and the fluorescence intensity, proportional to the number of viable cells, was measured using a Spectra Max GEMINI EM as described(19). […] Representative images were captured and the total length of tube-like structures per area was measured using the IP-LAB software as described(19). […]

LEC [3] = experiment: Haptotactic LEC migration assay (FluoroBlok inserts); format: cell-based, human; details: 10 μM SNAP, 100 nM NS-2028, 3 hours
Description: as §3
(§4) LEC (1.5×10^3) were seeded into fibronectin-coated 96-well plates as described(19). […] The fluorescence intensity, proportional to the number of viable cells, was measured using a Spectra Max GEMINI EM (Bucher Biotech AG, Basel, Switzerland). […] After 3 hours incubation at 37° C., cells on the underside of the inserts were stained with Calcein-AM (Molecular Probes), and the fluorescence intensity, proportional to the number of viable cells, was measured using a Spectra Max GEMINI EM as described(19). […] Representative images were captured and the total length of tube-like structures per area was measured using the IP-LAB software as described(19). […]

HR-1 hairless mice [4] = experiment: UVB irradiation-induced ear swelling; format: in vivo; details: for ear swelling after UVB irradiation vs control-treated: 200 mJ/cm^2 UVB, topical daily 1 mM SNAP or 10 μM NS-2028, days 2-4
Description: as §2

lymphatic vessels = experiment: LYVE-1 immunohistochemistry and morphometric analysis of cutaneous lymphatic vessels after UVB; format: in vivo; details: UVB-irradiated mice; for enlargement of lymphatic vessels in the dermis (LYVE-1): vs vehicle
Description: as §1, §2

cGMP production in LEC = experiment: cGMP enzyme immunoassay in siRNA-transfected LEC; format: cell-based, human
Description: siRNA transfection was performed using the Basic Nucleofactor Kit for primary mammalian endothelial cells (Amaxa Biosystems, CITY, Germany). Briefly, after trypsinization, LEC (5×10^5) were resuspended in 100 μl of basic nucleofactor solution. Cells were transfected by electroporation (Nucleofactor II, Amaxa Biosystems), using 1.6 μg of siRNA containing two different double-stranded oligonucleotides for each sGCα2 or sGCα1. The following siRNAs were used: GCα1: CCUUGUACAUAUAUCAGAUtt and GGCACCCUUAAAGAUUUUUtt, GCα2: CGAUACAGCAGACUCUCAAtt and GCUAUGCUCUGAUGUUUCAtt. Control siRNA (Silencer negative control #1 siRNA, Ambion, Cambridgeshire, UK) comprising a 19-bp scrambled sequence with 3′dT overhangs was used as a control; the sequences has no significant sequence homology to any known gene sequence. At 72 hours after tranfection, cells were used for RNA purification or for cGMP assays. Efficient knockdown of mRNA expression was confirmed by TaqMan real-time RT-PCR for sGCα1 and sGCα2 (Applied Biosystems assay ID for sGCα2 was Hs00181365_ml). For cGMP enzyme immunoassays, 1×10^4 siRNA-transfected LEC were seeded into individual wells of a 96-well plate and were incubated with 2% FBS-containing medium. After 24 hours, cells were incubated with several concentrations of SNAP (1-100 μM) for 15 minutes. The cellular cGMP concentrations were measured using an EIA immunoassay kit (Amersham Biosciences, Freiburg, Germany).

LEC [5] = experiment: LEC tube formation assay (type I collagen overlay); format: cell-based, human
Description: as §3, §4

[6] = day 4 after UVB, SNAP in the presence of NS-2028

For “4H-8-Bromo-1,2,4-oxadiazolo(3,4-d)benz(b)(1,4)oxazin-1-one [NS-2028]”, the “MOMA-2 positive cells / macrophage infiltration in the dermis” value (HR-1 hairless mice [1]) was “less MOMA-2 positive cells”, the “edema formation in the dermis vs control-treated” value (HR-1 hairless mice [1]) was “decreased” and the SNAP-induced edema formation (HR-1 hairless mice [1]; [6]) was “blocked”. The SNAP-induced macrophage infiltration (HR-1 hairless mice [1]; [6]) was “blocked”, the “effect on SNAP-induced LEC proliferation” value (LEC [2]; 10 μM SNAP, NS-2028 100 nM, 72 hours) was “significantly blocked” and the “effect on untreated LEC (proliferation)” value (LEC [2]; NS-2028 alone) was “did not have any effect”. For the same compound, the “effect on SNAP-induced LEC migration” value (LEC [3]) was “blocked; also recorded: strongly inhibited”, the “ear swelling after UVB irradiation vs control-treated” value (HR-1 hairless mice [4]) was “significantly reduced” and the “SNAP-induced augmentation of the UVB response (ear swelling)” value (HR-1 hairless mice [4]; combined topical treatment 1 mM SNAP and 10 μM NS-2028) was “completely prevented”. The “SNAP-induced enlargement of lymphatic vessels” value (lymphatic vessels; SNAP with NS-2028) was “inhibited”, the “average size of lymphatic vessels” value (lymphatic vessels; day 4, mean±SEM n=5) was 350.1 μm^2 and the “enlargement of lymphatic vessels in the dermis (LYVE-1)” value (lymphatic vessels) was “completely blocked”.

With CC(=O)NC(C(=O)O)C(C)(C)SN=O (racemic) [SNAP, S-Nitroso-N-acetyl-D,L-penicillamine] the “MOMA-2 positive cells / macrophage infiltration in the dermis” value (HR-1 hairless mice [1]) was “strongly enhanced”, the “edema formation in the dermis vs control-treated” value (HR-1 hairless mice [1]) was “enhanced” and the “minimal effective concentration for induction of LEC proliferation” value (LEC [2]; SNAP 0.1 to 10 μM, 72 hours, EBM 2% fetal bovine serum) was 1 µM. The “cGMP production in control siRNA- and sGCα2-siRNA transfected LEC” value (cGMP production in LEC; SNAP 1-100 μM, 15 minutes) was “dose-dependently induced”, the “minimal effective dose for increased cGMP production” value (cGMP production in LEC; control siRNA-transfected and sGCα2 siRNA-transfected LEC, SNAP 15 minutes) was 1 µM and the “induction of cGMP production in sGCα1-siRNA transfected LEC” value (cGMP production in LEC; sGCα1 knockdown, SNAP 1-100 μM) was “no induction of cGMP was detected; also recorded: completely prevented”. For the same compound, the “ear swelling after UVB irradiation vs control-treated” value (HR-1 hairless mice [4]) was “significantly enhanced”, the “area occupied by lymphatic vessels” value (lymphatic vessels; day 4, mean±SEM n=5) was 2.18% and the “average size of lymphatic vessels” value (lymphatic vessels; day 4, mean±SEM n=5) was 730.7 μm^2. The “enlargement of lymphatic vessels in the dermis (LYVE-1)” value (lymphatic vessels) was “pronounced enlargement”, the “formation of tube-like structures vs untreated cultures” value (LEC [5]; 1 μM or 10 μM SNAP) was “potently promoted” and the “minimal effective dose for in vitro cord formation by LEC” value (LEC [5]; type I collagen gel overlay, 6 hours) was 1 µM.
